Measured values reported in patent publication US12419854B2, “Methods for treating or preventing gout or hyperuricemia” (Arthrosi Therapeutics, Inc., priority 2018, dated 2025).
Like-named read-outs stand apart in the source and are kept apart here. Blank lines part the entries; values can stand above or below the compound they belong to.

Legend:
[1] = In vitro metabolism in human liver microsomes (HPLC-MS profiling); format: in vitro ADME; conditions: for % MS response, Parent: human liver microsomes 0.5 mg/mL, NADPH, 60 minutes, 37° C.
Method: After pre-warming the mixture at 37° C. for 5 minutes, the reaction was initiated by the addition of 1 mM of NADPH and incubated for 60 minutes at 37° C. in a shaking water bath. The reaction was terminated by the addition of 0.5 mL ice-cold acetonitrile. Time 0 incubation was also performed by adding acetonitrile before the addition of microsomes to the incubation mixture as a reference sample for each species. Following vortex and centrifugation at 15,000 g for 3 minutes at room temperature, resulting supernatant was concentrated under nitrogen flow at 33° C., until approximately 0.5 mL of sample remained. The extract was then transferred to a 1.5-mL centrifuge vial for centrifugation at 15,000 g for 3 minutes. Finally, aliquots of the supernatant were transferred to HPLC vials for HPLC-MS analyses.
MS Analysis: Mass spectral analyses were performed on an Agilent single quadruple mass spectrometer equipped with an Agilent 1100 HPLC system. The mass spectrometer was fitted with an electrospray ionization (ESI) source and operated in a negative scan mode between 400 and 500 amu:
Metabolic profiling of benzbromarone was conducted using a similar method as described above.

Cynomolgus Monkeys = assay: 4-week oral toxicity study in cynomolgus monkeys; format: in vivo
From the text: (§1) On Day 29, surviving TS animals (all animals in study) were euthanized and subjected to a full gross necropsy, which included a macroscopic examination of the external surface of the body, all orifices, cranial cavity, external surface of the brain, the thoracic, abdominal and pelvic cavities and their viscera, cervical areas, carcass and genitalia. Organs were weighed as soon as possible from all main study animals at the scheduled necropsies. Tissues from animals at the terminal sacrifice, from animals found dead or moribund-sacrificed, and gross lesions from all animals, were embedded in paraffin, sectioned, stained with hematoxylin and eosin and examined microscopically by a board certified veterinary pathologist.

[2] = Phase 1 single dose study, plasma pharmacokinetics; format: in vivo, human; conditions: for power model intercept (a) of exposure versus dose: male, human, plasma, oral
Method: (§2) The dose groups included Cohort 1 (15 mg or placebo, fasted, oral suspension), Cohort 2 (50 mg or placebo, fasted, suspension), Cohort 3 (100 mg or placebo, fasted, oral suspension), Cohort 4 (150 mg or placebo, fasted, oral suspension), Cohort 6 (50 mg or placebo, fed, oral suspension), and Cohort 7 (50 mg or placebo, fasted, oral capsule). […] An additional 8 subjects received placebo.
The results are consistent with observation in animal testing and higher exposure of S-enantiomer was attributed to the conversion of the R-enantiomer in vivo.

serum uric acid (sUA) [3] = assay: Phase 1 single dose study, pharmacodynamics (serum uric acid); format: in vivo, human; conditions: for Percent change in serum uric acid, mean, time-matched (Day-1) baseline: 0 h
Method: as §2
Decrease in sUA appeared to reach a plateau at 100 mg or lower.

serum uric acid (sUA) [4] = assay: Phase 1 multiple ascending dose study, pharmacodynamics (serum uric acid); format: in vivo, human; conditions: 25, 50 or 75 mg once daily oral capsules, fasted, 10 days; in words
From the text: An additional 6 subjects received placebo.
Steady-state sUA lowering effect was achieved after approximately 5 days.

[5] = molecular target: T1, human URAT1 uptake transporter (Homo sapiens, UniProt Q96S37); assay: Inhibition of URAT1-mediated uric acid uptake in MDCKII cells stably expressing human URAT1; format: cell-based
T1 construct: expressed in transfected cells
T1 sequence (Q96S37 1-553): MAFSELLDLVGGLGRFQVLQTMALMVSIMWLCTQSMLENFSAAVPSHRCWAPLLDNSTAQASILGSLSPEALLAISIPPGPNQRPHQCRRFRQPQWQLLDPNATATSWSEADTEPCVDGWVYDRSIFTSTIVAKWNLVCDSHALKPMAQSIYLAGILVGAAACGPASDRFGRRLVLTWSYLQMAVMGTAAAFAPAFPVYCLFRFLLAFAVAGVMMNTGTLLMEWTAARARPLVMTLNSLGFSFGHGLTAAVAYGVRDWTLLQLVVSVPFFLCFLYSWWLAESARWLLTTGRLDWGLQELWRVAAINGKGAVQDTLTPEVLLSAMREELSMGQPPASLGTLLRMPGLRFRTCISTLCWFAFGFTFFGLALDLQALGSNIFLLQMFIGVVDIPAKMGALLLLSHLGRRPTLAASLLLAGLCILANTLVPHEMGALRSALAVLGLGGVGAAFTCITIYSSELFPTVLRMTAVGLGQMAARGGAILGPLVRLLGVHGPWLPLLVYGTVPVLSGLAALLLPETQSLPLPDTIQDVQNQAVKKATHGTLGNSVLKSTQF
Method: Uptake experiments were performed using MDCKII cells stably expressing the human URAT1 uptake transporter. Cells were cultured at 37+1° C. in an atmosphere of 95:5 air:CO2 and were plated onto standard 96-well tissue culture plates at the cell number described in Table 1.
Radiolabeled probe substrate transport was determined by measuring an aliquot (35 μL) from each well for liquid scintillation counting.

Sprague-Dawley Rats = assay: 4-week oral toxicity study in Sprague-Dawley rats; format: in vivo; conditions: rat
From the text: as §1, with “Tissues from Groups 1 and 5 animals at” for “Tissues from animals at”

% MS response, Parent [1]: 13.1%
Compound: CCc1oc2ccccc2c1C(=O)c1cc(Br)c(O)c(Br)c1 [Benzbromarone, reference compound]

Compound: [2H]c1c([2H])c([2H])c2c(C(=O)c3cc(Br)c(O)c(Br)c3)c(C(C)O)oc2c1[2H] (racemic) [Compound 1, (3,5-dibromo-4-hydroxyphenyl)(2-(1-hydroxyethyl)benzofuran-3-yl-4,5,6,7-d4)methanone]
human equivalent of NOAEL (Cynomolgus Monkeys; cynomolgus monkey, in vivo): 600 mg
effect on food consumption of body weight (Cynomolgus Monkeys; monkey, 10-150 mg/kg/day, 28 days): no effect
liver weight (Cynomolgus Monkeys; monkey, male, 150 mg/kg/day, no statistical difference): trended higher
food effect on Cmax in the fed state ([2]; 50 mg, fed versus fasted): ~33%
dose proportionality of AUC (AUCinf) ([2]; 15 to 150 mg, fasted, in words): dose proportional increases
dose proportionality of Cmax ([2]; 15 to 150 mg, fasted, in words): slightly less than dose proportionality increase
power model intercept (a) of exposure versus dose ([2]; 15 to 150 mg, fasted, AUCinf (μg · h/mL) = a × dose^b, read-out: power model intercept, AUCinf): 944 ng·h/mL
power model intercept (a) of exposure versus dose ([2]; 15 to 150 mg, fasted, Cmax (μg/mL) = a × dose^b, read-out: power model intercept, Cmax): 96.6 ng/mL
AUCinf (Total) ([2]; single oral dose 50 mg, fed, suspension (C6)): 51200 ng·h/mL
volume of distribution, range over dose groups ([2]; single oral dose 15-150 mg): 14 to 18 L
sUA reduction with versus without food (serum uric acid (sUA) [3]; 50 mg single dose, throughout 120 hours post-dose, in words): no difference
Percent change in serum uric acid, mean, time-matched (Day-1) baseline (serum uric acid (sUA) [3]; single oral dose 15 mg, fasted): −3.4%
Percent change in serum uric acid, mean, time-matched (Day-1) baseline (serum uric acid (sUA) [3]; single oral dose 50 mg, fasted (suspension)): −8.9%
Serum uric acid, mean (serum uric acid (sUA) [3]; single oral dose 50 mg, fasted (suspension), −12 h (pre-dose)): 5.9 mg/dL
Serum uric acid, mean (serum uric acid (sUA) [3]; single oral dose 50 mg, fasted (suspension), −24 h (pre-dose)): 6.7 mg/dL
Serum uric acid, mean (serum uric acid (sUA) [3]; single oral dose 50 mg, fasted, Capsule, −12 h (pre-dose)): 5.5 mg/dL
Serum uric acid, mean (serum uric acid (sUA) [3]; single oral dose 50 mg, fasted, Capsule, −18 h (pre-dose)): 5.5 mg/dL
Percent change in serum uric acid, mean, time-matched (Day-1) baseline (serum uric acid (sUA) [3]; single oral dose 50 mg, fed): −1.0%
Serum uric acid, mean (serum uric acid (sUA) [3]; single oral dose 50 mg, fed, −12 h (pre-dose)): 6.2 mg/dL
Serum uric acid, mean (serum uric acid (sUA) [3]; single oral dose 50 mg, fed, −24 h (pre-dose)): 6.5 mg/dL
Percent change in serum uric acid, mean, time-matched (Day-1) baseline (serum uric acid (sUA) [3]; single oral dose 100 mg, fasted): −6.6%
Serum uric acid, mean (serum uric acid (sUA) [3]; single oral dose 150 mg, fasted, −18 h (pre-dose)): 5.7 mg/dL
mean sUA levels versus placebo group (serum uric acid (sUA) [3]; single oral dose 15, 50, 100, and 150 mg fasted, at 50 mg or higher, in words): dose-dependent decreases
mean sUA levels versus placebo group (serum uric acid (sUA) [4]): dose-dependent decreases
inhibition at 10 µM ([5]; MDCK-II, at 10 μM, read-out: inhibition of URAT1 mediated uric acid accumulation): 100%
in vitro URAT1 potency versus benzbromarone ([5]; comparison in words): better in vitro URAT1 potency than benzbromarone
effect on food consumption of body weight (Sprague-Dawley Rats; 2-50 mg/kg/day oral gavage, 28 days): no effect
kidney weight (Sprague-Dawley Rats; female, 50 mg/kg/day, 28 days): kidney weight increase
liver weight (Sprague-Dawley Rats; female, ≥15 mg/kg/day, 28 days): Liver weight increase
human equivalent of NOAEL (Sprague-Dawley Rats; in vivo): 500 mg
liver weight (Sprague-Dawley Rats; male, 50 mg/kg/day, 28 days): Liver weight increase
% MS response, Parent [1]: 82.5%
formation of 6-OH benzbromarone and 5,6-di-OH benzbromarone metabolites ([1]; in words): not formed
